IC50 data for 24 molecules are collected here from patent US10501438B2, “Aryl-substituted dihydroquinolinones, their preparation and their use as pharmaceuticals” (NEOMED Institute, priority 2015, dated 2019).

The target of one assay is BRD4(BD1) (Homo sapiens (Human), UniProt O60885). Nature of the assay: In vitro bromodomain inhibition assay (AlphaLISA). In kind it is binding. The note with it: His-tagged BRD4 BD1 200 nM, biotinylated H4-tetraacetyl peptide 200 nM. On the procedure:
a) In Vitro Bromodomain Inhibition Assay
To measure activity of bromodomain inhibitors, a His-epitope tagged BRD4 BD149-170 is purchased from BPS Bioscience. BRD4 binding and inhibition is assessed by monitoring the engagement of biotinylated H4-tetraacetyl peptide (H4K5/8/12/16; AnaSpec #64989-025) with the target using the AlphaLISA technology (Perkin-Elmer). Specifically, in a 384 well OptiPlate, BRD4(BD1) (200 nM final) is pre-incubated with either DMSO (final 1.0% DMSO) or a compound dilution series in DMSO. All reagents are diluted in assay buffer containing 50 mM HEPES (pH 7.4), 100 mM NaCl, 0.1% (w/v) BSA, and 0.05% (w/v) CHAPS. After a 30 min incubation at rt, H4 peptide is added (200 nM final) and the reaction is incubated an additional 30 min at rt. Alpha streptavidin donor beads and AlphaLISA nickel chelate acceptor beads are then added to a final concentration of 10 μg/mL each. After one hour, equilibration plates are read on an Envision instrument and IC50s calculated using a four parameter non-linear curve fit (results are shown in Table 2).

Assay [1] has as its system human C-Myc transcription in MV-4-11 cells. In words: Transcription of human C-Myc in human leukemic MV-4-11 cells (QuantiGene 2.0). The note with it: inhibition of C-Myc mRNA, 4 hours treatment. In kind it is cell-based. The method, then: b) Transcription of Human C-Myc in Human Leukemic MV-4-11 Cells:
The effect of compounds on transcription of human C-Myc gene is monitored in human B-myelomonocytic leukemia cell line MV-4-11 (from American Type Culture Collection (ATCC), Manassas, Va., USA) using QuantiGene 2.0 assay kit (Affymetrix, Santa Clara, Calif., USA).
Typically, 8,000 MV-4-11 cells are plated in sterile 96-well plates (Costar #3598 from Fisher Scientific Canada, Ottawa, Ontario, Canada) in Iscove's medium supplemented with 10% fetal bovine serum, glutamine (2 mM), and penicillin (100 I.U.) and streptomycin (100 μg/mL) (all from Wisent Inc., St. Bruno, Quebec, Canada). Compounds are dissolved in DMSO at 30 mM. A series of 1:3 dilutions are first made in DMSO, and further 1:100 dilutions are made in serum-containing cell culture media. The final concentration of DMSO is 0.1% in cell culture media. After cells are treated with various concentrations of test compound for 4 hours, cells are lysed using Quantigene 2.0 sample processing kit (#QS0100). C-Myc mRNA is detected using a QuantiGene 2.0 assay kit (#QS0009) with gene-specific probe to human C-Myc (#SA-50182) following the manufacturer's recommendations. Luminescene signals are read on Flexstation II microplate reader (Molecular Devices, Sunnyvale, Calif., USA).

As usually defined, the IC50 is the concentration that gives 50% inhibition. A lower IC50 goes with greater potency in that assay.

For the molecule `Cc1cc(-c2cc3c(c(Cc4ccccc4)c2)N(C)C(=O)CC3)cn(C)c1=O` [Compound 2, 8-benzyl-6-(1,5-dimethyl-6-oxo-3-pyridyl)-1-methyl-3,4-dihydroquinolin-2-one], the IC50 at BRD4(BD1) stood at 560 nM; in assay [1] (Homo sapiens, MV4-11, 4 h), 210 nM. Turning to `Cc1cc(-c2cc3c(c(OCc4ccccc4)c2)NC(=O)CC3)cn(C)c1=O` [Compound 17, 8-(benzyloxy)-6-(1,5-dimethyl-6-oxo-1,6-dihydropyridin-3-yl)-3,4-dihydroquinolin-2(1H)-one], the 50% inhibitory concentration (IC50) at BRD4(BD1) was found to be 180 nM; in assay [1] (Homo sapiens, MV4-11, 4 h), 240 nM.

For `Cc1cc(-c2cc3c(c(CN4CCCCC4)c2)NC(=O)CC3)cn(C)c1=O` [Compound 13, 6-(1,5-dimethyl-6-oxo-3-pyridyl)-8-(1-piperidylmethyl)-3,4-dihydro-1H-quinolin-2-one], the IC50 at BRD4(BD1) worked out at 1300 nM; in assay [1] (Homo sapiens, MV4-11, 4 h) it was 1580 nM. With `Cc1cc(-c2ccc3c(c2Cc2ccccc2)CCC(=O)N3C)cn(C)c1=O` [Compound 9, 5-benzyl-6-(1,5-dimethyl-6-oxo-3-pyridyl)-1-methyl-3,4-dihydroquinolin-2-one], the IC50 was 270 nM against BRD4(BD1) and 260 nM in assay [1] (Homo sapiens, MV4-11, 4 h). Taken in the same sequence, the figures for `Cc1cc(-c2cc3c(cc2Cc2ccccc2)N(C)C(=O)CC3)cn(C)c1=O` [Compound 10, 7-benzyl-6-(1,5-dimethyl-6-oxo-3-pyridyl)-1-methyl-3,4-dihydroquinolin-2-one] were 480 nM and 250 nM.

In the case of `Cc1cc(-c2cc3c(c(NCc4ccccc4)c2)NC(=O)CC3)cn(C)c1=O` [Compound 4, 8-(benzylamino)-6-(1,5-dimethyl-6-oxo-3-pyridyl)-3,4-dihydro-1H-quinolin-2-one], the IC50 against BRD4(BD1) stood at 280 nM; in assay [1] (Homo sapiens, MV4-11, 4 h), 90 nM. Regarding `Cc1cc(-c2cc3c(c(N(C)c4ccccc4)c2)NC(=O)CC3)cn(C)c1=O` [Compound 14, 6-(1,5-dimethyl-6-oxo-3-pyridyl)-8-(N-methylanilino)-3,4-dihydro-1H-quinolin-2-one], the concentration for half-maximal inhibition (IC50) at BRD4(BD1) was found to be 350 nM; in assay [1] (Homo sapiens, MV4-11, 4 h), 190 nM. For `Cc1cc(-c2cc3c(c(NC4CCCCC4)c2)NC(=O)CC3)cn(C)c1=O` [Compound 6, 8-(cyclohexylamino)-6-(1,5-dimethyl-6-oxo-3-pyridyl)-3,4-dihydro-1H-quinolin-2-one], the concentration for half-maximal inhibition (IC50) against BRD4(BD1) was determined as 810 nM; in assay [1] (Homo sapiens, MV4-11, 4 h), 750 nM. As for `Cc1cc(-c2cc3c(c(CNC4CCCC4)c2)NC(=O)CC3)cn(C)c1=O` [Compound 19, 8-[(cyclopentylamino)methyl]-6-(1,5-dimethyl-6-oxo-3-pyridyl)-3,4-dihydro-1H-quinolin-2-one], the IC50 on BRD4(BD1) was 700 nM; in assay [1] (Homo sapiens, MV4-11, 4 h), 900 nM. Regarding `Cc1cc(-c2ccc3c(c2Cc2ccccc2)CCC(=O)N3)cn(C)c1=O` [Compound 7, 5-benzyl-6-(1,5-dimethyl-6-oxo-3-pyridyl)-3,4-dihydro-1H-quinolin-2-one], the IC50 worked out at 140 nM at BRD4(BD1) and 90 nM in assay [1] (Homo sapiens, MV4-11, 4 h). On to `Cc1cc(-c2cc3c(c(NC4CCOCC4)c2)NC(=O)CC3)cn(C)c1=O` [Compound 18, 6-(1,5-dimethyl-6-oxo-3-pyridyl)-8-(tetrahydropyran-4-ylamino)-3,4-dihydro-1H-quinolin-2-one], for which the IC50 against BRD4(BD1) is 420 nM; in assay [1] (Homo sapiens, MV4-11, 4 h), 790 nM.

In the case of `Cc1cc(-c2cc3c(c(Cc4ccccc4)c2)NC(=O)CC3)cn(C)c1=O` [Compound 1, 8-benzyl-6-(1,5-dimethyl-6-oxo-3-pyridyl)-3,4-dihydro-1H-quinolin-2-one], the IC50 on BRD4(BD1) was 410 nM; in assay [1] (Homo sapiens, MV4-11, 4 h) it was 160 nM. Taken in the same sequence, the figures for `Cc1cc(-c2cc3c(cc2Cc2ccccc2)NC(=O)CC3)cn(C)c1=O` [Compound 8, 7-benzyl-6-(1,5-dimethyl-6-oxo-3-pyridyl)-3,4-dihydro-1H-quinolin-2-one] were 280 nM and 240 nM.

Take `Cc1cc(-c2cc3c(c(Nc4ccccc4)c2)NC(=O)CC3)cn(C)c1=O` [Compound 3, 8-anilino-6-(1,5-dimethyl-6-oxo-3-pyridyl)-3,4-dihydro-1H-quinolin-2-one]: the concentration for half-maximal inhibition (IC50) against BRD4(BD1) was 510 nM; in assay [1] (Homo sapiens, MV4-11, 4 h), 580 nM. Taken in the same sequence, the figures for `Cc1cc(-c2cc3c(c(NCc4ccccn4)c2)NC(=O)CC3)cn(C)c1=O` [Compound 12, 6-(1,5-dimethyl-6-oxo-3-pyridyl)-8-(2-pyridylmethylamino)-3,4-dihydro-1H-quinolin-2-one] were 110 nM and 90 nM.

In assay [1] (Homo sapiens, MV4-11, 4 h), `Cn1cc(-c2cc3c(c(OCc4cccnc4)c2)NC(=O)CC3)cc(Cl)c1=O` [Compound 80, 6-(5-chloro-1-methyl-6-oxo-1,6-dihydropyridin-3-yl)-8-(pyridin-3-yl-methoxy)-3,4-dihydroquinolin-2(1H)-one] gave a half-maximal inhibitory concentration (IC50) of 520 nM.

The molecule `Cc1cc(-c2cc3c(c(OC4CCCCC4)c2)NC(=O)CC3)cn(C)c1=O` [Compound 16, 8-(cyclohexyloxy)-6-(1,5-dimethyl-6-oxo-1,6-dihydropyridin-3-yl)-3,4-dihydroquinolin-2(1H)-one] showed an IC50 in assay [1] (Homo sapiens, MV4-11, 4 h) of 530 nM. Molecule `Cc1cc(-c2cc3c(c(OC(C)c4cccnc4)c2)NC(=O)CC3)cn(C)c1=O` (single isomer, unassigned) [Compound 92b, 6-(1,5-dimethyl-6-oxo-1,6-dihydropyridin-3-yl)-8-(1-(pyridin-3-yl)ethoxy)-3,4-dihydroquinolin-2(1H)-one] registered a half-inhibitory concentration (IC50) in assay [1] of 510 nM. Molecule `Cc1cc(-c2cc3c(c(COc4ccccc4)c2)NC(=O)CC3)cn(C)c1=O` [Compound 44, 6-(1,5-dimethyl-6-oxo-1,6-dihydropyridin-3-yl)-8-(phenoxymethyl)-3,4-dihydroquinolin-2(1H)-one] registered a concentration for half-maximal inhibition (IC50) in assay [1] (Homo sapiens, MV4-11, 4 h) of 270 nM. Regarding `Cc1cc(-c2cc3c(c(Nc4cccnc4)c2)NC(=O)CC3)cn(C)c1=O` [Compound 11, 6-(1,5-dimethyl-6-oxo-3-pyridyl)-8-(3-pyridylamino)-3,4-dihydro-1H-quinolin-2-one], the IC50 came out at 350 nM against BRD4(BD1) and 2120 nM in assay [1] (Homo sapiens, MV4-11, 4 h). Turning to `Cc1cc(-c2cc3c(c(OCC4CCC4)c2)NC(=O)CC3)cn(C)c1=O` [Compound 20, 8-(cyclobutylmethoxy)-6-(1,5-dimethyl-6-oxo-1,6-dihydropyridin-3-yl)-3,4-dihydroquinolin-2(1H)-one], in assay [1] (Homo sapiens, MV4-11, 4 h), the IC50 amounted to 790 nM.

For `Cc1cc(-c2cc3c(c(OCc4ncco4)c2)NC(=O)CC3)cn(C)c1=O` [Compound 81, 6-(1,5-dimethyl-6-oxo-1,6-dihydropyridin-3-yl)-8-(oxazol-2-ylmethoxy)-3,4-dihydroquinolin-2(1H)-one], in assay [1] (Homo sapiens, MV4-11, 4 h), the IC50 amounted to 530 nM.

In assay [1] (Homo sapiens, MV4-11, 4 h), `Cc1cc(-c2ccc3c(c2Cc2cccc(C#N)c2)CCC(=O)N3)cn(C)c1=O` [Compound 88, 3-((6-(1,5-dimethyl-6-oxo-1,6-dihydropyridin-3-yl)-2-oxo-1,2,3,4-tetrahydroquinolin-5-yl)methyl)benzonitrile] showed an IC50 of 260 nM. The molecule `Cn1cc(-c2cc3c(c(OCc4ccccn4)c2)NC(=O)CC3)cc(Cl)c1=O` [Compound 79, 6-(5-chloro-1-methyl-6-oxo-1,6-dihydropyridin-3-yl)-8-(pyridin-2-ylmethoxy)-3,4-dihydroquinolin-2(1H)-one] showed an IC50 in assay [1] (Homo sapiens, MV4-11, 4 h) of 240 nM.
